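GI50: concentration for 50% inhibition of growth. The concentration for full growth arrest is given as TGI.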
Columns and labels:
Assay in all cases: DTP human tumour cell line panel, 384-well format
UO-31 renal = system: UO-31 renal
MDA-MB-435 melanoma = system: MDA-MB-435 melanoma
MOLT-4 leukemia = system: MOLT-4 leukemia
HCT-15 colon = system: HCT-15 colon
MCF7 breast = system: MCF7 breast
NCI-H322M lung = system: NCI-H322M lung
HT29 colon = system: HT29 colon
SF-295 CNS = system: SF-295 CNS
RPMI-8226 leukemia = system: RPMI-8226 leukemia
NCI-H226 lung = system: NCI-H226 lung
M14 melanoma = system: M14 melanoma
SR leukemia = system: SR leukemia
OVCAR-8 ovarian = system: OVCAR-8 ovarian
NCI/ADR-RES ovarian = system: NCI/ADR-RES ovarian
SW-620 colon = system: SW-620 colon
NCI-H522 lung = system: NCI-H522 lung
SNB-19 CNS = system: SNB-19 CNS
UACC-257 melanoma = system: UACC-257 melanoma
HS 578T breast = system: HS 578T breast
OVCAR-3 ovarian = system: OVCAR-3 ovarian
T-47D breast = system: T-47D breast
SF-268 CNS = system: SF-268 CNS
SN12C renal = system: SN12C renal
KM12 colon = system: KM12 colon
SK-MEL-28 melanoma = system: SK-MEL-28 melanoma
786-0 renal = system: 786-0 renal
A498 renal = system: A498 renal
TK-10 renal = system: TK-10 renal
IGROV1 ovarian = system: IGROV1 ovarian
COLO 205 colon = system: COLO 205 colon

CC(C)C[C@H](NC(=O)CNC(=O)c1cc(Cl)ccc1Cl)B1OC(=O)CC(CC(=O)O)(C(=O)O)O1 (some centres undefined)
TGI (UO-31 renal): 36.6 nM | GI50 (MDA-MB-435 melanoma): < 14.8 nM | TGI (MDA-MB-435 melanoma): 28.3 nM | GI50 (MOLT-4 leukemia): < 12.8 nM | TGI (MOLT-4 leukemia): < 17.4 nM | GI50 (HCT-15 colon): 36.7 nM | TGI (HCT-15 colon): 101 nM | GI50 (MCF7 breast): < 21.3 nM | TGI (MCF7 breast): 619 nM | GI50 (NCI-H322M lung): 351 nM | TGI (NCI-H322M lung): 2020 nM | GI50 (HT29 colon): 23.4 nM | TGI (HT29 colon): 62.4 nM | GI50 (SF-295 CNS): 30.5 nM | TGI (SF-295 CNS): 88.4 nM | GI50 (RPMI-8226 leukemia): < 13.2 nM | TGI (RPMI-8226 leukemia): < 17.7 nM | GI50 (NCI-H226 lung): < 13.5 nM | TGI (NCI-H226 lung): 24.5 nM | GI50 (M14 melanoma): 16.5 nM | TGI (M14 melanoma): 32.6 nM | GI50 (SR leukemia): < 17.7 nM | TGI (SR leukemia): < 21.6 nM | GI50 (OVCAR-8 ovarian): 66.8 nM | TGI (OVCAR-8 ovarian): 158 nM | GI50 (NCI/ADR-RES ovarian): 189 nM | TGI (NCI/ADR-RES ovarian): 448 nM | GI50 (SW-620 colon): < 15.3 nM | TGI (SW-620 colon): 33.2 nM | GI50 (NCI-H522 lung): 15.7 nM | TGI (NCI-H522 lung): 31.1 nM | GI50 (SNB-19 CNS): 59.4 nM | TGI (SNB-19 CNS): 272 nM | GI50 (UACC-257 melanoma): 17.3 nM | TGI (UACC-257 melanoma): 33.3 nM | GI50 (HS 578T breast): 16.7 nM | TGI (HS 578T breast): 32.7 nM | GI50 (OVCAR-3 ovarian): < 14.3 nM | TGI (OVCAR-3 ovarian): 26.4 nM | GI50 (T-47D breast): 25.6 nM | TGI (T-47D breast): 70.8 nM | GI50 (SF-268 CNS): 23.6 nM | TGI (SF-268 CNS): 53.8 nM | GI50 (SN12C renal): 87.3 nM | TGI (SN12C renal): 263 nM | GI50 (KM12 colon): 54.7 nM | TGI (KM12 colon): 148 nM | GI50 (SK-MEL-28 melanoma): < 14.4 nM | TGI (SK-MEL-28 melanoma): 25.3 nM | GI50 (786-0 renal): 24 nM | TGI (786-0 renal): 91.6 nM | GI50 (A498 renal): < 23.7 nM | TGI (A498 renal): 191 nM | GI50 (TK-10 renal): < 18 nM | TGI (TK-10 renal): 53 nM | GI50 (IGROV1 ovarian): 70.6 nM | TGI (IGROV1 ovarian): 178 nM | GI50 (COLO 205 colon): 58 nM | TGI (COLO 205 colon): 557 nM
